Results from patent publication US9078831B2, “Cosmetic treatment method using a compound that can be condensed in situ and a UV-radiation-filtering agent” (L'Oreal, priority 2009, dated 2015).

How the values were obtained:
[1] = Persistence towards water (water resistance, SPF before and after baths) in vivo; parameters: species or system volunteers; conditions: APTES layer under Example 2, in words
Procedure: (§1) The screening effectiveness and the persistence towards water of a solution of UV screening agents, applied to a condensed deposited layer of APTES, in comparison with a solution deposited on bare skin, are evaluated and compared at different concentrations. The UV screening agents tested are Phenylbenzimidazole Sulfonic Acid and Terephthalylidene Dicamphor Sulfonic Acid.
(§2) The studies were carried out on 5 volunteers of phototype I, II or III. The studies targeted exclusively at determining the screening effectiveness took place over 2 consecutive days, when 3 days were necessary for measurements of persistence towards water. On the first day, the screening formulation is applied at 2 mg per cm^2 on bare skin or on a condensed deposited layer of APTES. The volunteers are subsequently exposed to ultraviolet radiation. Erythema is read and the SPF is defined 24 h later. In the case of a test of persistence towards water, the same solutions or pairs of solutions are applied on the second day. The volunteers are immersed in 2 consecutive baths of water, each of 20 minutes, Wore being again exposed to UV radiation. The post-bath SPF is determined during the third test day. The water resistance (WR) is defined as: […]
The water resistance of the 12% solution of UV screening agents was also evaluated in vivo, with and without APTES. […]

[2] = Screening effectiveness (SPF) in vivo; parameters: species or system volunteers; conditions: spread over a deposited layer of APTES versus bare skin; 2 mg per cm^2; erythema read 24 h later
Procedure: as §1
as §2, with “day.” for “day. The water resistance (WR) is defined as:”
The SPF values of the 8% and 12% solutions of UV screening agents are measured, which measurements are taken after spreading over bare skin or over deposited layers more or less concentrated in APTES. […]

## CCO[Si](CCCN)(OCC)OCC [APTES, γ-aminopropyltriethoxysilane]
[1]
  resistance to water of the UV screening agents: significantly increase the resistance to water
[2]
  SPF in vivo: SPF increases in proportion as the amount of APTES spread beforehand over the skin increases
